From patent publication US12486280B2, “CDK inhibitors and uses thereof” (California Institute of Technology, priority 2018, dated 2025)
In brackets after ≈: the same amount, converted by molar mass. Read-outs that look alike come from different tables or passages of the source.

How the values were obtained:
[1] = system: CYP isozymes (IC50s averaged over the isozymes); test: CYP Enzymatic Inhibition Assay in human liver microsomes
Description: Inhibition of various CYP isozymes was measured for each compound using a CYP enzyme inhibition assay in human liver microsomes (HLM). Compounds and standard inhibitors were prepared at a 100× working solutions. Substrates or PBS were added to the corresponding wells followed by addition of compounds, solvent or positive control working solution to corresponding wells. HLMs were added to the pre-warmed (37° C.) plate and mixed with NADPH cofactor for 10 minutes at 37° C. The reaction was terminated by adding 400 μL cold stop solution (200 ng/mL Tolbutamide and 200 ng/mL Labetalol in ACN). The plate was centrifuged at 4,000 rpm for 20 minutes, and supernatant was transferred to 100 μL HPLC water followed by LC/MS/MS analysis.

[2] = Compound Solubility Assay (kinetic solubility); assay type: physicochemical; details: kinetic from dmso stock
Description: The relative kinetic solubility of each compound was determined at both low (1.2) and neutral (7.4) pH. Compounds were prepared at 10 mM stocks. […] Compounds were allowed to shake at room temperature for 24 hours in 50 mM phosphate buffer pH 7.4, or in SGF buffer pH 1.2 at 37° C. for 24 hours.

hERG potassium channels = hERG potassium channels (Homo sapiens (Human), UniProt Q12809)
Chain of hERG potassium channels (Q12809 whole entry): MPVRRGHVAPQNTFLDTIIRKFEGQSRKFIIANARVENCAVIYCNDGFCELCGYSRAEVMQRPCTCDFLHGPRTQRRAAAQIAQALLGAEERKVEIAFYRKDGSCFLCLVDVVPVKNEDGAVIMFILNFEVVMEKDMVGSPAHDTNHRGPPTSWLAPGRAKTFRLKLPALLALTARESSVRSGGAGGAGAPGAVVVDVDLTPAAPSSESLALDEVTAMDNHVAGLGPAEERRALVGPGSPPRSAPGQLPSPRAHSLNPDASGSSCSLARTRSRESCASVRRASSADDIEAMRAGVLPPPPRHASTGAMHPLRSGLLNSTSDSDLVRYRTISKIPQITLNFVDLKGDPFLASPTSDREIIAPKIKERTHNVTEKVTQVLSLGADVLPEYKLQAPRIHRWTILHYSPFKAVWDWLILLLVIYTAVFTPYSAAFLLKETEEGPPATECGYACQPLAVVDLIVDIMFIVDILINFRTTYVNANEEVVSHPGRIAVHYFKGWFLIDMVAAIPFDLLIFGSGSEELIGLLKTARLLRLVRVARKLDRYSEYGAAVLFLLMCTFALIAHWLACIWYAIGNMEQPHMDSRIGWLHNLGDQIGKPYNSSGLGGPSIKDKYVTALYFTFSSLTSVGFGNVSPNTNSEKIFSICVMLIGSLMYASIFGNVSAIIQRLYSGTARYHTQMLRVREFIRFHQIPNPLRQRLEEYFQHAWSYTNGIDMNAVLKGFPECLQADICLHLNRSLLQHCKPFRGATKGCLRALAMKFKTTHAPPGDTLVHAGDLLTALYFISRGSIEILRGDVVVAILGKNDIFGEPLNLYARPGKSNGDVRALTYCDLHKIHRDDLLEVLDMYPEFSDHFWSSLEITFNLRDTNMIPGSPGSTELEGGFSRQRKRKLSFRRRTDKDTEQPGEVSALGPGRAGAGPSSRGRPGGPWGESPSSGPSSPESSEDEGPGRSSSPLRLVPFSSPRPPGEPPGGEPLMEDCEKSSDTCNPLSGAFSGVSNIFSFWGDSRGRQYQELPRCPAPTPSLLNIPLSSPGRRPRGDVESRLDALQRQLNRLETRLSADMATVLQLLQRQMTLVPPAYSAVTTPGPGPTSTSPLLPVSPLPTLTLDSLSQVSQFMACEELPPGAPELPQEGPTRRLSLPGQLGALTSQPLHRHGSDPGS

[3] = system: drug-resistant cell lines of Table 2 (NCI-H1437, OV207, HCC1806, NCI-H2172); test: Cell Line Growth Retardation Assay, resistant cohort; assay type: cell-based, human; details: Homo sapiens, […], geometric mean over resistant cohort; 6 days growth; read-out: AvgResIC50
How it was run: (§1)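 Cells rested 24 h, then exposed 6 days to compound at 10, 2, 0.4, 0.08, 0.016 and 0.0032 μM; counted by imaging on day 0 and day 6. Growth inhibition as ratio of population doublings versus vehicle; IC50 from curve fits, cohort values as geometric means.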

[4] = system: drug-sensitive cell lines of Table 2 (EFM-19, MDA-MB-453, T-47D, ZR-75-1, NCI-H441, OVTOKO, NCI-H1838); test: Cell Line Growth Retardation Assay, sensitive cohort; assay type: cell-based, human
How it was run: as §1

[5] = Measurement of Compound Metabolic Stability in hepatocytes
Description: The metabolic stability of compounds was determined in hepatocytes from mice and rats. Compounds were diluted to 5 μM in Williams' Medium E from 10 mM stock solutions. 10 μL of each compound was aliquoted into a well of a 96-well plate and reactions were started by aliquoting 40 μL of a 625,000 cells/mL suspension into each well. The plate was incubated at 37° C. with 5% CO2. At each corresponding time point, the reaction was stopped by quenching with ACN containing internal standards (IS) at a 1:3. Plates were shaken at 500 rpm for 10 min, and then centrifuged at 3,220×g for 20 minutes. Supernatants were transferred to another 96-well plate containing a dilution solution. Supernatants were analyzed by LC/MS/MS. Compound half-life was estimated using the following equation:

[6] = Caco-2 Assay (Papp A to B); details: human, Caco-2, pH 7.4
Description: The degree of bi-directional human intestinal permeability for compounds was estimated using a Caco-2 cell permeability assay. Caco-2 cells were seeded onto polyethylene membranes in 96-well plates. The growth medium was refreshed every 4 to 5 days until cells formed a confluent cell monolayer. HBSS with 10 mM HEPES at pH 7.4 was used as the transport buffer. Compounds were tested at 2 μM bi-directionally in duplicate. Digoxin, nadolol and metoprolol were included as standards. Digoxin was tested at 10 μM bi-directionally in duplicate, while nadolol and metoprolol were tested at 2 μM in the A to B direction in duplicate. The final DMSO concentration was adjusted to less than 1% for all experiments. The plate was incubated for 2 hours in a CO2 incubator at 37° C., with 5% CO2 at saturated humidity. After incubation, all wells were mixed with acetonitrile containing an internal standard, and the plate was centrifuged at 4,000 rpm for 10 minutes. 100 μL supernatant was collected from each well and diluted with 100 μL distilled water for LC/MS/MS analysis. Concentrations of test and control compounds in starting solution, donor solution, and receiver solution were quantified by LC/MS/MS, using peak area ratio of analyte/internal standard. The apparent permeability coefficient Papp (cm/s) was calculated using the equation: Papp=(dCr/dt)×Vr/(A×C0) Where dCr/dt is the cumulative concentration of compound in the receiver chamber as a function of time (μM/s); Vr is the solution volume in the receiver chamber (0.075 mL on the apical side, 0.25 mL on the basolateral side); A is the surface area for the transport, which is 0.0804 cm^2 for the area of the monolayer; C0 is the initial concentration in the donor chamber (μM).

Compound: CCN1CCN(Cc2ccc(Nc3ncc(F)c(-c4cc(F)c5nc(C)n(C(C)C)c5c4)n3)nc2)CC1 [Abemaciclib MS, Abemaciclib, reference compound]
- IC50 at 10 min [1]: 63.7 µM
- solubility kinetic at 24 h ([2]; 50 mM phosphate buffer, pH 7.4, aqueous buffer, read-out: KS7): 151 µM (≈ 76.4 µg/mL)
- solubility kinetic at 24 h ([2]; simulated gastric fluid, kinetic solubility, SGF buffer pH 1.2, 37° C., 24 hours, read-out: KS1): 193 µM (≈ 97.9 µg/mL)
- hERG (hERG potassium channels): 15.36%
- IC50 [3]: 0.67 µM
- IC50 ([4]; Homo sapiens, […], geometric mean over sensitive cohort, 6 days growth, read-out: AvgSensIC50): 0.09 µM
- Ther Window ([4]; average IC50 drug-resistant group divided by average IC50 drug-sensitive group): 7.27
- half-life at 1 μM [5]: 25.7 min
- Papp A→B at 2 h, 2 μM [6]: 1.86 ×10⁻⁶ cm/s
